Data as given in article PMC2150313 (British Journal of Cancer, 1998).
Like-named read-outs stand apart in the source and are kept apart here.

Tests used:
[1] = Rat pharmacokinetics: plasma 4-OH-IF and chloroacetaldehyde after i.v. IF, with P450 inducer/inhibitor pretreatment
Source text: British Joumal of Cancer (1998) 77(11), 1768-1776 ? […] Both reactions are catalysed by multiple liver P450 enzymes in vitro in isolated rat liver microsomes. […] The identification of those P450s that contribute specifically to these individual meta- bolic pathways is of particular interest, given the large degree of interindividual differences in the catalytic activities of specific P450s seen in human liver samples (Shimada et al, 1994). […] This complexation, in turn, results in an inhibition of these P450s. Inhibition of P450 2B 1 by non-covalent interaction with the haem ligand metyrapone (MTP) has also been reported (Waxman and Walsh, 1983; Halpert, 1995). […] MTP and other specialty chemi- cals were of the highest grade commercially available and were obtained from Aldrich Chemical (Milwaukee, WI, USA). Animals Male Fischer 344 rats (160-250 g; 7-11 weeks of age) were purchased from Taconic (Germantown, NY, USA). Animals were maintained in individual plastic cages under conditions of constant temperature (22?C), lighting (12-h dark-light cycle) and humidity, and provided with food and water ad libitum, in accordance with the National Institutes of Health Guide for the Care and Use of Laboratory Animals. Rat pharmacokinetics Surgery For kinetic studies, rats were implanted with an indwelling cannula (silicone medical grade/polyethylene tubing) in the right jugular vein to allow blood sampling and drug administration. Surgery was performed under ketamine (Ketaset 95 mg kg-') and xylazine (Rompun 12 mg kg-') anaesthesia 3-4 days before the kinetic experiment. After cannulation, a Rodent Infusion Set obtained from Lomin (Quebec, Canada) was used to withdraw blood samples at appropriate time intervals. Catheters were flushed daily with heparinized saline (20 U ml-') to prevent clotting. […] The sample was then diluted in 0.9% saline to the final required volume and the pH adjusted to pH 4 with 1 M sodium hydroxide. […] At each time point, the rats were given an injection of 0.5 ml of 0.9% saline through the catheter to replace the volume of blood withdrawn. […] Data shown at each pharmacokinetic sampling point are means ? s.d. values. […] Plasma samples (100 gl of supematant) were removed and stored at -80?C until analysis. Plasma proteins were precipitated by successive addition of 40 gl of ice-cold 5.5% (w/v) zinc sulphate, 40 gl of ice-cold saturated barium hydroxide and 20 gl of ice-cold 0.01 M hydrochloric acid. Samples were centrifuged for 15 min at 16 000 g, and 125 gl of the supernatant was added to 67 gl of a solution containing 6 mg of 3-amino- phenol and 6 mg of hydroxylamine hydrochloride dissolved in 1 ml of 1 M hydrochloric acid. Samples were heated at 90?C for 30 min in the dark, then allowed to cool to room temperature and diluted with 408 pl of distilled water before reading the fluores- cence (350 nm excitation and 515 nm emission) on a Shimadzu RF15 spectrofluorophotometer. […] CA present in the plasma samples was derivatized with thiourea to produce 2-aminothiazole, which was assayed by high-performance liquid chromatography (HPLC) after solid- phase extraction by a modification of published methods (Yu and Waxman, 1996). Briefly, a 208-gl aliquot of heparinized blood was immediately mixed with 1 mm formaldehyde to stabilize CA, and then deproteinized with 25.2 pl of ice-cold 70% perchloric acid. After centrifugation (16 000 g for 4 min) at room temperature, 140 pl of the supernatant was added to 21 pl of 100 mM thiourea. […] The derivatized samples were stored at -80?C until analysis (usually within 2 weeks). The 2-aminothia- zole product was isolated using a 100-mg Bond Elut SCX cation- exchange column (Varian), and then eluted, evaporated in vacuo in a Speed Vac and analysed by HPLC on an Alltech Econosphere C18 column with an absorbance detector operating at a wavelength of 254 nm.

rat liver microsomes = tested on: rat liver microsomes; design: method as in Yu and Waxman, 1996; details: ref Yu and Waxman, 1996, cited from earlier work
P450 2B1 = molecular target: T1, P450 2B1 (Rattus norvegicus, UniProt P00176); details: isolated liver microsomes, vs untreated
T1 sequence (P00176 1-491): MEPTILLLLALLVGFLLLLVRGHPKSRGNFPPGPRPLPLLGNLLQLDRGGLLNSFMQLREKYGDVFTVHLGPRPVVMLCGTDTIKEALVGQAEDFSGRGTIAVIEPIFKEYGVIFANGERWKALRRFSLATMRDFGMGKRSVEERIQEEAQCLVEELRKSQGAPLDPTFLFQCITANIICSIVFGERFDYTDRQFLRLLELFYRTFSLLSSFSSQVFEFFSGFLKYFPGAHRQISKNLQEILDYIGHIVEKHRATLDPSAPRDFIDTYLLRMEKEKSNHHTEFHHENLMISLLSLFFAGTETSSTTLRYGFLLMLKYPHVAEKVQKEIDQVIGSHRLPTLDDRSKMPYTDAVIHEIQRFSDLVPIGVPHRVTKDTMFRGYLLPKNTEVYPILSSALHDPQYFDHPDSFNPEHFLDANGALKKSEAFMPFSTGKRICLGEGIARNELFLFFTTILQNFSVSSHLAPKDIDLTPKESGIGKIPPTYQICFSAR

[2] = after IF 100 mg kg-1 i.v., DEX 50 mg kg-1 for 3 days
[3] = after IF 100 mg kg-1 i.v., PB20 rats given MTP 5 min before IF

O=P1(NCCCl)OCCC(O)N1CCCl (stereo not drawn) [4-OH-IF, 4-hydroxy IF]
tmax [1, 2]: 4 min | tmax [1, 3]: 4 min | tmax (time to reach peak plasma concentration) ([1]; after IF 100 mg kg-1 i.v., untreated (UT) rats): 4 to 10 min

O=CCCl [CA, chloroacetaldehyde]
tmax [1, 2]: 10 min | tmax [1, 3]: 60 min | tmax ([1]; after IF 100 mg kg-1 i.v., PB-pretreated rats (PB20 and PB80, Figure 1B and C)): 4 min | Cmax ([1]; plasma, IF 100 mg kg-1 i.v., PB80+TAO group (TAO 500 mg kg-1 2 h before IF), n=3): 172 µM

O=P1(NCCCl)OCCCN1CCCl (stereo not drawn) [IF, ifosfamide]
extent of in vitro IF N-dechloroethylation, of total metabolism (rat liver microsomes; liver microsomes of DEX-treated male rats): 24% | extent of in vitro IF N-dechloroethylation, of total metabolism (rat liver microsomes; liver microsomes of male rats without DEX treatment): 47%

Cc1ccccc1C(OCCN(C)C)c1ccccc1 (stereo not drawn) [ORP, orphenadrine, reference compound]
increase in CA half-life ([1]; male, Fischer 344, rat, in vivo, ip): approximately 30%

CCC1(c2ccccc2)C(=O)NC(=O)NC1=O [PB, phenobarbital]
induction of androstenedione 16β-hydroxylase activity (P450 2B1; PB20 regimen): fivefold | induction of androstenedione 16β-hydroxylase activity (P450 2B1; PB80 regimen): 7.5 fold
